According to US20180042874A1, “METHOD FOR TREATING OSTEOPOROSIS” (China Medical University, priority 2016, published 2018):

Assay: Body weight in ovariectomized osteoporosis rat model
Assay type: in vivo, Sprague-Dawley (SD) female rats
Description: Inducing osteoporosis animal models and experimental methods: • 1. 6-month old Sprague-Dawley (SD) female rats were purchased; • 2. These rats were divided into 7 groups, of which Group 1 was given pseudo-surgery, Group 2-7 underwent bilateral ovariectomies; • 3. On the 6th day after surgery, 1 mL/kg of vehicle alone was given orally to Group 1, Group 2 daily, Zoledronic Acid and Prolia were administered weekly by injections to Group 3, Group 4, respectively; 1, 3, 10 mg/kg of the compound of formula I was given orally every 3 days to Groups 5-7, respectively; • 4. Body weight and bone density were measured weekly, blood was drawn until the 118th day; • 5. Rats were then sacrificed to obtain kidneys, livers and rat tibia; • 6. Data were consolidated and processed.

Row | Molecule | effect on body weight (ovariectomized rats) | effect on body weight (rat, in vivo)
1 | O=P(O)(O)C(O)(Cn1ccnc1)P(=O)(O)O [Zoledronic acid] | decreased the body weight | –
2 | Proliaor: commercially available drug, injected weekly as comparator in ovariectomized rats | – | increased the body weight
